Experimental data taken from the supplement of paper PMC10307832.

Experiments:
Assay in all cases: relative viability (nuclei count vs DMSO), 5 days (fraction); higher = more cells survive
Carfilzomib + Pictilisib = compound: CC(C)C[C@H](NC(=O)[C@H](CCc1ccccc1)NC(=O)CN1CCOCC1)C(=O)N[C@@H](Cc1ccccc1)C(=O)N[C@@H](CC(C)C)C(=O)[C@@]1(C)CO1 [Carfilzomib] + CS(=O)(=O)N1CCN(Cc2cc3nc(-c4cccc5[nH]ncc45)nc(N4CCOCC4)c3s2)CC1 [Pictilisib] (partner 1 µM)
In short: (§1)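 For relative viability, nuclei counts in treated wells were divided by those in vehicle wells. Lung cancer cell lines had been pin-tool dosed in 1536-well plates the day after seeding and cultured for 5 days, then fixed and stained in one step (final 0.05% Triton X-100, 1% formaldehyde, 1 ug/ml Hoechst) and imaged at 4×. Doses were one drug alone or a fixed anchor-drug dose plus five library-drug doses (not always all listed) in √10 steps, and values are duplicate-plate medians.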

Crizotinib + Decitabine = compound: C[C@@H](Oc1cc(-c2cnn(C3CCNCC3)c2)cnc1N)c1c(Cl)ccc(F)c1Cl [Crizotinib] + Nc1ncn([C@H]2C[C@H](O)[C@@H](CO)O2)c(=O)n1 [Decitabine] (partner 2 µM)
In short: as §1

Crizotinib + Bortezomib = compound: C[C@@H](Oc1cc(-c2cnn(C3CCNCC3)c2)cnc1N)c1c(Cl)ccc(F)c1Cl [Crizotinib] + CC(C)C[C@H](NC(=O)[C@H](Cc1ccccc1)NC(=O)c1cnccn1)B(O)O [Bortezomib] (partner 0.002 µM)
In short: as §1

[1] = compound: CC(C)C[C@H](NC(=O)[C@H](CCc1ccccc1)NC(=O)CN1CCOCC1)C(=O)N[C@@H](Cc1ccccc1)C(=O)N[C@@H](CC(C)C)C(=O)[C@@]1(C)CO1 [Carfilzomib] + CC(=O)c1c(C)c2cnc(Nc3ccc(N4CCNCC4)cn3)nc2n(C2CCCC2)c1=O [Palbociclib] (partner 0.5 µM)
In short: as §1

Cell Line	relative viability (Carfilzomib + Pictilisib; first compound 0.001 µM)	relative viability (Carfilzomib + Pictilisib; first compound 0.003162 µM)	relative viability (Carfilzomib + Pictilisib; first compound 0.01 µM)	relative viability (Carfilzomib + Pictilisib; first compound 0.03162 µM)	relative viability (Carfilzomib + Pictilisib; first compound 0.1 µM)	relative viability (Crizotinib + Decitabine; first compound 0.01 µM)	relative viability (Crizotinib + Decitabine; first compound 0.03162 µM)	relative viability (Crizotinib + Decitabine; first compound 0.1 µM)	relative viability (Crizotinib + Decitabine; first compound 1 µM)	relative viability (Crizotinib + Bortezomib; first compound 0.01 µM)	relative viability (Crizotinib + Bortezomib; first compound 0.03162 µM)	relative viability (Crizotinib + Bortezomib; first compound 0.1 µM)	relative viability (Crizotinib + Bortezomib; first compound 0.3162 µM)	relative viability (Crizotinib + Bortezomib; first compound 1 µM)	relative viability ([1]; first compound 0.001 µM)	relative viability ([1]; first compound 0.003162 µM)	relative viability ([1]; first compound 0.01 µM)	relative viability ([1]; first compound 0.03162 µM)	relative viability ([1]; first compound 0.1 µM)	relative viability (Crizotinib + Decitabine; first compound 0.3162 µM)
NCI-H650	0.83	1.06	1.01	0.385	0.189	0.332	0.291	0.323	0.343	0.769	0.655	0.806	0.613	0.671	0.331	0.362	0.367	0.224	0.14	–
NCI-H661	0.391	0.458	0.457	0.483	0.238	0.546	0.533	0.531	0.569	0.759	0.768	0.72	0.777	0.817	0.423	0.414	0.472	0.398	0.318	0.594
NCI-H727	0.32	0.43	0.418	0.215	0.148	0.763	0.769	0.836	0.796	0.569	0.806	1.01	0.962	0.988	0.575	0.607	0.628	0.584	0.417	0.763
NCI-H838	0.487	0.525	0.449	0.615	0.144	0.433	0.473	0.473	0.474	0.806	0.695	0.968	0.863	–	0.209	0.226	0.268	0.193	0.102	0.483
